In PubChem BioAssay (NCI):
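Protocol summary: plate cells (96-well), add compound at 5 concentrations, incubate 48 h, interpolate endpoints linearly. TGI: concentration producing complete growth inhibition.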

Columns and labels:
Assay in all cases: NCI tumour cell line growth inhibition, 48 h
786-0 renal = test system: 786-0 renal
A498 renal = test system: A498 renal
A549 NSCLC = test system: A549 NSCLC
ACHN renal = test system: ACHN renal
CAKI-1 renal = test system: CAKI-1 renal
CCRF-CEM leukemia = test system: CCRF-CEM leukemia
COLO 205 colon = test system: COLO 205 colon
DLD-1 colon = test system: DLD-1 colon
DMS 114 small cell lung = test system: DMS 114 small cell lung
DMS 273 small cell lung = test system: DMS 273 small cell lung
EKVX NSCLC = test system: EKVX NSCLC
HCT-116 colon = test system: HCT-116 colon
HCT-15 colon = test system: HCT-15 colon
HL-60(TB) leukemia = test system: HL-60(TB) leukemia
HOP-18 NSCLC = test system: HOP-18 NSCLC
HOP-62 NSCLC = test system: HOP-62 NSCLC
HOP-92 NSCLC = test system: HOP-92 NSCLC
HT29 colon = test system: HT29 colon
IGROV1 ovarian = test system: IGROV1 ovarian
K-562 leukemia = test system: K-562 leukemia
KM12 colon = test system: KM12 colon
KM20L2 colon = test system: KM20L2 colon
LOX IMVI melanoma = test system: LOX IMVI melanoma
LXFL 529 NSCLC = test system: LXFL 529 NSCLC
M14 melanoma = test system: M14 melanoma
M19-MEL melanoma = test system: M19-MEL melanoma
MALME-3M melanoma = test system: MALME-3M melanoma
MOLT-4 leukemia = test system: MOLT-4 leukemia
NCI-H226 lung = test system: NCI-H226 lung
NCI-H23 lung = test system: NCI-H23 lung
NCI-H460 lung = test system: NCI-H460 lung
NCI-H522 lung = test system: NCI-H522 lung
OVCAR-3 ovarian = test system: OVCAR-3 ovarian
OVCAR-4 ovarian = test system: OVCAR-4 ovarian
OVCAR-5 ovarian = test system: OVCAR-5 ovarian
RPMI-8226 leukemia = test system: RPMI-8226 leukemia
RXF 393 renal = test system: RXF 393 renal
SF-268 CNS = test system: SF-268 CNS
SF-295 CNS = test system: SF-295 CNS
SF-539 CNS = test system: SF-539 CNS
SK-MEL-2 melanoma = test system: SK-MEL-2 melanoma
SK-MEL-28 melanoma = test system: SK-MEL-28 melanoma
SK-MEL-5 melanoma = test system: SK-MEL-5 melanoma
SK-OV-3 ovarian = test system: SK-OV-3 ovarian
SN12C renal = test system: SN12C renal
SNB-19 CNS = test system: SNB-19 CNS
SNB-75 CNS = test system: SNB-75 CNS
SNB-78 CNS = test system: SNB-78 CNS
SR leukemia = test system: SR leukemia
SW-620 colon = test system: SW-620 colon
TK-10 renal = test system: TK-10 renal
U251 CNS = test system: U251 CNS
UACC-257 melanoma = test system: UACC-257 melanoma
UACC-62 melanoma = test system: UACC-62 melanoma
UO-31 renal = test system: UO-31 renal
HCC-2998 colon = test system: HCC-2998 colon
OVCAR-8 ovarian = test system: OVCAR-8 ovarian

COc1ccc(C)cc(=O)c1O
TGI (786-0 renal): > 100 µM
TGI (A498 renal): > 100 µM
TGI (A549 NSCLC): > 100 µM
TGI (ACHN renal): > 100 µM
TGI (CAKI-1 renal): > 100 µM
TGI (CCRF-CEM leukemia): 72.5 µM
TGI (COLO 205 colon): > 100 µM
TGI (DLD-1 colon): > 100 µM
TGI (DMS 114 small cell lung): 50.4 µM
TGI (DMS 273 small cell lung): > 100 µM
TGI (EKVX NSCLC): > 100 µM
TGI (HCT-116 colon): > 100 µM
TGI (HCT-15 colon): > 100 µM
TGI (HL-60(TB) leukemia): 61.5 µM
TGI (HOP-18 NSCLC): > 100 µM
TGI (HOP-62 NSCLC): > 100 µM
TGI (HOP-92 NSCLC): > 100 µM
TGI (HT29 colon): > 100 µM
TGI (IGROV1 ovarian): > 100 µM
TGI (K-562 leukemia): > 100 µM
TGI (KM12 colon): > 100 µM
TGI (KM20L2 colon): > 100 µM
TGI (LOX IMVI melanoma): 79.7 µM
TGI (LXFL 529 NSCLC): > 100 µM
TGI (M14 melanoma): > 100 µM
TGI (M19-MEL melanoma): > 100 µM
TGI (MALME-3M melanoma): > 100 µM
TGI (MOLT-4 leukemia): > 100 µM
TGI (NCI-H226 lung): > 100 µM
TGI (NCI-H23 lung): > 100 µM
TGI (NCI-H460 lung): > 100 µM
TGI (NCI-H522 lung): 84.8 µM
TGI (OVCAR-3 ovarian): > 100 µM
TGI (OVCAR-4 ovarian): > 100 µM
TGI (OVCAR-5 ovarian): > 100 µM
TGI (RPMI-8226 leukemia): > 100 µM
TGI (RXF 393 renal): 90 µM
TGI (SF-268 CNS): > 100 µM
TGI (SF-295 CNS): > 100 µM
TGI (SF-539 CNS): > 100 µM
TGI (SK-MEL-2 melanoma): > 100 µM
TGI (SK-MEL-28 melanoma): > 100 µM
TGI (SK-MEL-5 melanoma): > 100 µM
TGI (SK-OV-3 ovarian): > 100 µM
TGI (SN12C renal): > 100 µM
TGI (SNB-19 CNS): > 100 µM
TGI (SNB-75 CNS): > 100 µM
TGI (SNB-78 CNS): > 100 µM
TGI (SR leukemia): 38.6 µM
TGI (SW-620 colon): > 100 µM
TGI (TK-10 renal): > 100 µM
TGI (U251 CNS): > 100 µM
TGI (UACC-257 melanoma): > 100 µM
TGI (UACC-62 melanoma): > 100 µM
TGI (UO-31 renal): > 100 µM

Cc1ccc(NC(=O)C(=O)CC(=O)c2c(C)n([O-])c3ccccc3[n+]2=O)cc1C
TGI (786-0 renal): > 100 µM
TGI (A498 renal): > 100 µM
TGI (A549 NSCLC): > 100 µM
TGI (ACHN renal): > 100 µM
TGI (CAKI-1 renal): > 100 µM
TGI (CCRF-CEM leukemia): > 100 µM
TGI (COLO 205 colon): > 100 µM
TGI (DMS 273 small cell lung): > 100 µM
TGI (EKVX NSCLC): > 100 µM
TGI (HCC-2998 colon): > 100 µM
TGI (HCT-116 colon): > 100 µM
TGI (HCT-15 colon): > 100 µM
TGI (HL-60(TB) leukemia): > 100 µM
TGI (HOP-18 NSCLC): > 100 µM
TGI (HOP-62 NSCLC): > 100 µM
TGI (HOP-92 NSCLC): > 100 µM
TGI (HT29 colon): > 100 µM
TGI (IGROV1 ovarian): > 100 µM
TGI (K-562 leukemia): > 100 µM
TGI (KM12 colon): > 100 µM
TGI (KM20L2 colon): > 100 µM
TGI (LOX IMVI melanoma): > 100 µM
TGI (LXFL 529 NSCLC): > 100 µM
TGI (M14 melanoma): > 100 µM
TGI (M19-MEL melanoma): > 100 µM
TGI (MALME-3M melanoma): > 100 µM
TGI (NCI-H226 lung): > 100 µM
TGI (NCI-H23 lung): > 100 µM
TGI (NCI-H460 lung): > 100 µM
TGI (NCI-H522 lung): > 100 µM
TGI (OVCAR-3 ovarian): > 100 µM
TGI (OVCAR-4 ovarian): > 100 µM
TGI (OVCAR-5 ovarian): > 100 µM
TGI (OVCAR-8 ovarian): > 100 µM
TGI (RPMI-8226 leukemia): > 100 µM
TGI (RXF 393 renal): > 100 µM
TGI (SF-268 CNS): > 100 µM
TGI (SF-295 CNS): > 100 µM
TGI (SF-539 CNS): > 100 µM
TGI (SK-MEL-2 melanoma): > 100 µM
TGI (SK-MEL-28 melanoma): > 100 µM
TGI (SK-MEL-5 melanoma): > 100 µM
TGI (SK-OV-3 ovarian): > 100 µM
TGI (SN12C renal): > 100 µM
TGI (SNB-19 CNS): > 100 µM
TGI (SNB-75 CNS): > 100 µM
TGI (SNB-78 CNS): > 100 µM
TGI (SR leukemia): > 100 µM
TGI (SW-620 colon): > 100 µM
TGI (TK-10 renal): > 100 µM
TGI (U251 CNS): > 100 µM
TGI (UACC-257 melanoma): > 100 µM
TGI (UACC-62 melanoma): > 100 µM
TGI (UO-31 renal): > 100 µM
